Measured values: publication PMC8318587, “Structure-guided microbial targeting of antistaphylococcal prodrugs” (eLife, 2021)

Key:
[1] = system: GloB; assay: 4-Nitrophenyl ester substrate activity assay; format: biochemical, Staphylococcus aureus; conditions: 1 µM protein, 1 mM substrate, 37°C, A405
Procedure: (§1) 4-Nitrophenyl substrate-specific activity was determined in 50 µL reactions containing 25 mM Tris pH 7.5, 250 mM NaCl, 1 mM MnCl2, 10% glycerol, 1 µM protein, and 1 mM 4-nitrophenyl substrate. The tested substrates, 4-nitrophenyl acetate (Sigma, N8130), 4-nitrophenyl butyrate (Sigma N9876), and 4-nitrophenyl trimethylacetate (Sigma 135046), were resuspended in acetonitrile at 100 mM. Reactions without 4-nitrophenyl substrate were preincubated at 37°C for 10 min prior to assay initiation via substrate addition. Conversion of 4-nitrophenyl substrates to 4-nitrophenol was tracked photometrically at 37°C and A405nm. Experiments were performed in triplicate with technical duplicates.

[2] = biological target: T1, FrmB (Staphylococcus aureus, UniProt A0A0H3KFB7); assay: 4-Nitrophenyl ester substrate activity assay; format: biochemical; conditions: 1 µM protein, 1 mM substrate, 37°C, A405
T1 construct: made in house; host or cells: E. coli BL21 (DE3)
Procedure: as §1

[3] = biological target: T2, SaGloB (Staphylococcus aureus, UniProt P0DY75); assay: Glyoxalase II activity assay (DTNB coupled); format: biochemical; conditions: 1 mM substrate, 37°C, 412 nm
T2 sequence (P0DY75 1-207): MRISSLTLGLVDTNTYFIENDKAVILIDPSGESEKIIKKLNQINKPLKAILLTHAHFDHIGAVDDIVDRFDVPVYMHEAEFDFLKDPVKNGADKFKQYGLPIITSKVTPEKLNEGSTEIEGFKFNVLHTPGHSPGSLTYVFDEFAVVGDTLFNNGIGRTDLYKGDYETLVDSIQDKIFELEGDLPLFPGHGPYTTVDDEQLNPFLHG
Procedure: (§2) Glyoxalase II activity was assessed as previously with minor changes ([Mikati et al., 2020]; [Stamp et al., 2010]). Briefly, reactions were mixed to form a final concentration of 25 mM Tris pH 7.5, 250 mM NaCl, 1 mM MnCl2, 10% glycerol, 200 µM 5,5’-dithiobis(2-nitrobenzoic acid) (DTNB, Sigma D8130), 1 mM D-lactoylglutathione (Sigma L7140), and 0.15–0.63 µg protein (130–550 nM GloB, 100–430 nM FrmB). Protein concentrations were varied to ensure the reaction was linear across protein concentrations. Reactions without D-lactoylglutathione were pre-incubated at 37°C for 10 min prior to assay initiation with the addition of substrate. Release of glutathione from D-lactoylglutathione was quantified spectrophotometrically at 37°C and 412 nm through the conversion of DTNB to TNB. Experiments were performed in triplicate with technical duplicates.

[4] = biological target: T3, SaFrmB (Staphylococcus aureus, UniProt A0A0H3KFB7); assay: Glyoxalase II activity assay (DTNB coupled); format: biochemical; conditions: 1 mM substrate, 37°C, 412 nm
T3 construct: made in house; host or cells: E. coli BL21 (DE3)
T3 sequence (A0A0H3KFB7 1-253): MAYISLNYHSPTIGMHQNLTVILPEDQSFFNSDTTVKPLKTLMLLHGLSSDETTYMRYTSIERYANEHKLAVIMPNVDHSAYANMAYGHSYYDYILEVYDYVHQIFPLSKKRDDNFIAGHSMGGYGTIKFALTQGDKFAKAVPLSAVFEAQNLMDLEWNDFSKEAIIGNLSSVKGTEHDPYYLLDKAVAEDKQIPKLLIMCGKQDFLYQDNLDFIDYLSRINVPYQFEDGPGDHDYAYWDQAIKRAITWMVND
Procedure: as §2

[5] = system: S. aureus; assay: Microfluidics live cell imaging of pro-fluorescent substrate activation; format: cell-based, Staphylococcus aureus; conditions: 10 µM pro-fluorescent substrate, 37°C, 30 min of observation
Procedure: Overnight cultures of S. aureus were grown in LB media, back diluted 1:500, and grown to early exponential phase (OD600 0.1–0.15), then washed in 1× PBS, and loaded on a bacterial CellASIC ONIX2 microfluidic plate. Prior to cell loading, the microfluidics plate lines were flushed with 1× PBS + 1% DMSO or 10 µM fluorescent pro-substrate in 1× PBS + 1% DMSO, and the plate was preincubated at 37°C. The microfluidics plate was loaded onto a Nikon Ti-E inverted microscope (Nikon Instruments, Inc) equipped with a 100× Plan N (N.A. = 1.45) Ph3 objective, SOLA SE Light Engine (Lumencor), heated control chamber (OKO Labs), and an ORCA-Flash4.0 sCMOS camera (Hammamatsu Photonics). The GFP filter set was purchased from Chroma Technology Corporation. Cells were loaded into the chamber until a single field of view contained 50–150 cells or cell clusters. […] Images were acquired every two min for a total of 44 min, and all experiments were undertaken at 37°C. The phase-contrast exposure time was kept constant at 200 ms, and the fluorescent channel exposure time was kept constant at 500 ms. For fluorescent images, the gain remained constant across all experiments. Image capture and analysis was performed using Nikon Elements Advanced Research software. Individual cells or clusters of cells were auto detected in the fluorescent channel using the intrinsic background fluorescence of each cell. […] Fluorescent intensity for each individual cell or cluster of cells was measured through the duration of the experiment and normalized to the area of the identified cell to yield the mean fluorescent intensity. Background cell autofluorescence was corrected by subtracting the average fluorescence across all identified objects from t = 0 through t = 10. Each experiment was performed in duplicate, with >50 individual cells or clusters analyzed in each experiment.

[6] = system: human sera; assay: Esterase substrate specificity, fluorogenic SAR library kinetics in serum; format: in vitro ADME
[7] = system: mouse sera; assay: as above; format: in vitro ADME
[8] = biological target: T2, SaGloB; assay: Esterase substrate specificity, fluorogenic SAR library kinetics; format: biochemical
Procedure, shortened: (§3)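 Kinetics used purified enzymes at 15 µg/mL in 25 mM Tris pH 7.5, 250 mM NaCl, 1 mM MgCl2, 10% glycerol at 37 °C. Fluorescein release (ex 485/em 520 nm) was followed 15 min and converted via a standard curve. Initial rates over substrate concentrations were fitted to Michaelis–Menten for Km and Vmax, with kcat from enzyme amount.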

[9] = biological target: T3, SaFrmB; assay: as above; format: biochemical; conditions: for Km: SaFrmB 15 µg/mL, pH 7.5, 37°C; for In vitro activity (catalytic efficiency) for FrmB, in words: fluorogenic ester substrate
Procedure, shortened: as §3

| Structure (SMILES) | Hydrolysis of 4-nitrophenyl ester by GloB, in words [1] | Hydrolysis of 4-nitrophenyl ester by FrmB, in words [2] | Intracellular activation (fluorescence) in live S. aureus, in words [5] | Km [6] [µM] | Km [7] [µM] | In vitro activity (catalytic efficiency) for GloB, in words ([8]; fluorogenic ester substrate) | Km [9] [µM] | In vitro activity (catalytic efficiency) for FrmB, in words [9] | further results |
| --- | --- | --- | --- | --- | --- | --- | --- | --- | --- |
| CC(=O)Oc1ccc([N+](=O)[O-])cc1 [4-nitrophenyl acetate] | no detectable activity | modest activity |  |  |  |  |  |  |  |
| CC(O)C(=O)SCC(NC(=O)CCC(N)C(=O)O)C(=O)NCC(=O)O (stereo not drawn) [S-lactoylglutathione] |  |  |  |  |  |  |  |  | Glyoxalase II activity (hydrolysis of substrate), in words [3]: specific activity comparable to previously characterized microbial type II glyoxalases; Glyoxalase II activity (hydrolysis of substrate), in words [4]: lacks appreciable glyoxalase activity |
| CC(C)(C)C(=O)Oc1ccc([N+](=O)[O-])cc1 [4-nitrophenyl trimethylacetate] | no detectable activity | no activity |  |  |  |  |  |  |  |
| CCCC(=O)Oc1ccc([N+](=O)[O-])cc1 [4-nitrophenyl butyrate] | no detectable activity | modest activity |  |  |  |  |  |  |  |
| CCC(CC)C(=O)OCOc1ccc2c(c1)Oc1cc(OCOC(=O)C(CC)CC)ccc1C21OC(=O)c2ccccc21 [9C] |  |  | never appreciably activates | > 50 | 12.3 | poor activity | > 50 | poor activity | Vmax [7]: 3.18 pmol*min-1*mg sera-1; Km ([8]; SaGloB, fluorogenic ester substrate): > 50 µM |
| CCOCCC(=O)OCOc1ccc2c(c1)Oc1cc(OCOC(=O)CCOCC)ccc1C21OC(=O)c2ccccc21 [5O] |  |  | never appreciably activates | 35.4 | > 50 | moderate activity | > 50 | poor activity | Vmax [6]: 2.25 pmol*min-1*mg sera-1; kcat/kuncat ([8]; SaGloB, normalised to uncatalysed hydrolysis rate): 17.0 103 |
